Results as given in patent US20220347175A1, “PYRIDAZINONE DERIVATIVE” (Sumitomo Dainippon Pharma Co., Ltd., priority 2018, published 2022).
Where two headings read alike, the source gives them in different places. Values belong to the compound of their own block, whether it stands above or below them.

What was measured:
human Nav1.1 = biological target: T1, human Nav1.1 (Homo sapiens, UniProt P35498); test: Amplification of Nav1.1-derived voltage-dependent sodium current (Nav1.1 current), cell line stably expressing human Nav1.1, automated patch clamp; assay type: cell-based
T1 construct: host or cells: HEK293
In short: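 Automated whole-cell voltage-clamp recordings used HEK293 cells stably expressing human Nav1.1, keeping only cells with >500 pA current, with currents evoked by ramp voltage. Compounds were applied in extracellular fluid with 1% DMSO, and amplification (%) was computed from peak current or AUC after versus before addition.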

human Nav1.5 = biological target: T2, human Nav1.5 (Homo sapiens, UniProt Q14524); test: Amplification of Nav1.5-derived voltage-dependent sodium current (Nav1.5 current), cell line stably expressing human Nav1.5, automated patch clamp; assay type: cell-based
T2 construct: expressed in transfected cells; host or cells: CHO-K1 (T-REx System, ThermoFisher Scientific)
T2 sequence (Q14524 1-2015 isoform Q14524-2): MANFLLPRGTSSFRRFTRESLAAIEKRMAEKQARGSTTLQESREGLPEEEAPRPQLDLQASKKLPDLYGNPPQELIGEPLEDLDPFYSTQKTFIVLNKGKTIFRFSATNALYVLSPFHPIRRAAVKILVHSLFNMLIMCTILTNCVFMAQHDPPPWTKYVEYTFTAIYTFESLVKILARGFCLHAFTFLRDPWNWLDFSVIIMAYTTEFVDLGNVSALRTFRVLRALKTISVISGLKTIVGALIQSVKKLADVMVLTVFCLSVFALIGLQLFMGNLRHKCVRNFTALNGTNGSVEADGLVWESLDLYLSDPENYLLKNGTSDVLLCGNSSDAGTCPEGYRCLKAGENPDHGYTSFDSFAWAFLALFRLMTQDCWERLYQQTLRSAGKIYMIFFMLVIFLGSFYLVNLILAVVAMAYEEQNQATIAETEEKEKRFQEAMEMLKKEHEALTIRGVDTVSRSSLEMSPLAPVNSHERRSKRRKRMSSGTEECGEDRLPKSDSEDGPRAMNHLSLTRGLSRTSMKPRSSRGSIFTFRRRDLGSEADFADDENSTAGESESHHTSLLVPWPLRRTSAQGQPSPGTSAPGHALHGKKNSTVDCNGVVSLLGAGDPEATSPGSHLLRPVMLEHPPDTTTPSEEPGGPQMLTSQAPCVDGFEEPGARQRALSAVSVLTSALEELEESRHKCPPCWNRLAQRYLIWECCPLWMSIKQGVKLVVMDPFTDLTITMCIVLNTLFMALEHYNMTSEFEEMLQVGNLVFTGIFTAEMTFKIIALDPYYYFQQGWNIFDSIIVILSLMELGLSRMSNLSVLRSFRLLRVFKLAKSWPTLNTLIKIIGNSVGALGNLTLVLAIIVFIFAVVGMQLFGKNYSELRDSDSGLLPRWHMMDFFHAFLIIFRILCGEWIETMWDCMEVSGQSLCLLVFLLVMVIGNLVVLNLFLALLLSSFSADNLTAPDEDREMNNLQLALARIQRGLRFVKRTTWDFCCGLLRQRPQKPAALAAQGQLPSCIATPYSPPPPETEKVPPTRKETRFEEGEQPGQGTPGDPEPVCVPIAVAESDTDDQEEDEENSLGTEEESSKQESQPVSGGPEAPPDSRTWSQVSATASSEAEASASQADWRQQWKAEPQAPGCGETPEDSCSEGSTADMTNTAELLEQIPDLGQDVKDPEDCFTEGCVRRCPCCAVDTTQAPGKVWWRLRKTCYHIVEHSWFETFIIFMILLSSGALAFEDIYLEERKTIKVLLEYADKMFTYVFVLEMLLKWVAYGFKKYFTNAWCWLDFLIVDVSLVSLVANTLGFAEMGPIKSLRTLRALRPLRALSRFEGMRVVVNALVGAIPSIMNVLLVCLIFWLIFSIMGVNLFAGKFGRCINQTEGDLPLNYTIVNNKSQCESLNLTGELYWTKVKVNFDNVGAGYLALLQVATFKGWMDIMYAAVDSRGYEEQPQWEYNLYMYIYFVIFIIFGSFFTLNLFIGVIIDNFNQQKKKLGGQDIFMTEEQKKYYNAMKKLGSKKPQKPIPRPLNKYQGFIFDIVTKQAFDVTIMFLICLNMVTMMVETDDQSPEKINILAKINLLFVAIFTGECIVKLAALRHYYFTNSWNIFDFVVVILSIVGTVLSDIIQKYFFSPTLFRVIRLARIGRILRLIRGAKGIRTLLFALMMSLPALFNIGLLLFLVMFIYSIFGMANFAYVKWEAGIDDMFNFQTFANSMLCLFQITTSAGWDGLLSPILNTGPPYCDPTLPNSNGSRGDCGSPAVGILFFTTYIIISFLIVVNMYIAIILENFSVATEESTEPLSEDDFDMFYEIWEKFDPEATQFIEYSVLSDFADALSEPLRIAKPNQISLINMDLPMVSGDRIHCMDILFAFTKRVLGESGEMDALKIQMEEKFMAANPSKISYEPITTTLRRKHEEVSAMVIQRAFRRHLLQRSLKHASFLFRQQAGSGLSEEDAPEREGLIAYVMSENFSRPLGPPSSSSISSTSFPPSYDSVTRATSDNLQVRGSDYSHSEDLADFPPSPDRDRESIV
Method: Test 2: Evaluation of the Amplification in Nav1.5-Derived Voltage-Dependent Sodium Current (Nav1.5 Current) by Using a Cell Line Stably Expressing Human Nav1.5
A CHO-K1 cell line (Chinese hamster ovary) stably expressing human Nav1.5 (Gene Bank Accession No: P000326.2) was obtained by using purchased T-Rex System (ThermoFisher Scientific, USA), and used for the present test. The effect of test compounds on the amplification of Nav1.5 current was evaluated by using a cell line stably expressing human Nav1.5 and HTS automated patch clamp system, similarly in the method using Nav1.1. In other words, test compounds were added in an extracellular fluid which contained 1% DMSO and 500 nmol/L Tetrodotoxin (TTX), and evaluated as a change of the peak value of Nav1.5 current and the area under the curve (AUC). The induction and the measurement of Nav1.5 current, the pharmacologic effect on Nav1.5 current, and a method for pharmacological evaluation were carried out by the same method as in Nav1.1.

[1] = 10 μmol/L compound, change of the area under the curve of Nav1.1 current (Test Result 1), read-out: Nav1.1 current amplification rate (%)
[2] = 10 μmol/L compound, change of the area under the curve of Nav1.5 current (Test Result 1), read-out: Nav1.5 current amplification rate (%)
[3] = 10 μmol/L compound, change of the area under the curve of Nav1.1 current (Test Result 1)
[4] = 10 μmol/L compound, change of the area under the curve of Nav1.5 current (Test Result 1)
[5] = Concentration 1 μM (Test Result 7), read-out: Nav1.1 current amplification rate (%)
[6] = 10 μmol/L compound (Test Result 5)
[7] = concentration of each compound 1 μmol/L (Test Result 6), read-out: Nav1.1 current amplification rate (%)
[8] = concentration of each compound 1 μmol/L (Test Result 6)

SMILES: CC1(C)CCN(c2ccc(=O)n(CC(=O)Nc3ccn4ccnc4c3)n2)CC1 [Example 192]
activation at 10 µM (human Nav1.1; [1]): 137% | activation at 10 µM (human Nav1.5; [2]): 2%

SMILES: COC(=O)c1ccc(NC(=O)Cn2nc(N3CCC(C)CC3)ccc2=O)cn1 [Example 182]
activation at 10 µM (human Nav1.1; [1]): 32% | activation at 10 µM (human Nav1.5; [2]): 17%

SMILES: Cc1cc(=O)n(CC(=O)Nc2ccc3ocnc3c2)nc1N1CCC(C)CC1 [Example 201]
activation at 10 µM (human Nav1.1; [1]): 139% | activation at 10 µM (human Nav1.5; [2]): 1%

SMILES: N#Cc1ccc(NC(=O)Cn2nc(N3CC4CC4C3)ccc2=O)cc1 (stereo not drawn) [Example 18]
Nav1.1 current amplification rate (%) (human Nav1.1; [6]): 11%

SMILES: CC1CCN(c2ccc(=O)n(CC(=O)Nc3ccc(C#N)cc3)n2)C1 (stereo not drawn) [Example 19]
Nav1.1 current amplification rate (%) (human Nav1.1; [6]): 98%

SMILES: N#Cc1ccc(NC(=O)Cn2nc(C3CCC(F)(F)CC3)ccc2=O)cc1 [Example 47]
Nav1.1 current amplification rate (%) (human Nav1.1; [6]): 11%

SMILES: O=C(Cn1nc(N2CCC3(CCC3)C2)ccc1=O)Nc1ccn2ncnc2c1 [Example 230]
activation at 1 µM (human Nav1.1; [7]): 33%

SMILES: CN(c1ccc(=O)n(CC(=O)Nc2ccc3cnccc3c2)n1)C1CC2(CC2)C1 [Example 569]
activation at 50 µM (human Nav1.1; Concentration 50 μM (Test Result 7), read-out: Nav1.1 current amplification rate (%)): 393%

SMILES: Cc1cc(=O)n(CC(=O)Nc2ccc3oc(N(C)C)nc3c2)nc1C1=CCC(C)(C)CC1 [Example 504]
activation at 1 µM (human Nav1.1; [7]): 27%

SMILES: N#Cc1ccc(NC(=O)Cn2nc(N3CCC4(CC3)CC(F)(F)C4)ccc2=O)cc1 [Example 32]
Nav1.1 current amplification rate (%) (human Nav1.1; [6]): 60%

SMILES: CC1CC(C)CN(c2ccc(=O)n(CC(=O)Nc3ccc(C#N)cc3)n2)C1 (stereo not drawn) [Example 15]
Nav1.1 current amplification rate (%) (human Nav1.1; [6]): 10%

SMILES: N#Cc1ccc(NC(=O)Cn2nc(N3CCCC4(CC4)C3)ccc2=O)cc1 [Example 20]
Nav1.1 current amplification rate (%) (human Nav1.1; [6]): 152%

SMILES: O=C(Cn1nc(N2CCC3(CC3)C(F)(F)C2)ccc1=O)Nc1ccn2ncnc2c1 [Example 557]
activation at 1 µM (human Nav1.1; [5]): 17%

Now from value to compound, other results behind:

activation at 1 µM (human Nav1.1; compound 1 μmol/L, HEK293 stably expressing human Nav1.1, read-out: Nav1.1 current amplification rate (%)): 198%
SMILES: CC1(C)CCN(c2ccc(=O)n(CC(=O)N3CCc4c(-c5ccnnc5)cccc43)n2)CC1 [Example 235]
activation at 1 µM (human Nav1.5; compound 1 μmol/L, CHO-K1 stably expressing human Nav1.5, read-out: Nav1.5 current amplification rate (%)): 7%

activation at 10 µM (human Nav1.1; [1]): 97%
SMILES: CC1CCN(c2ccc(=O)n(CC(=O)N3CCc4cc(N5CCCC5=O)ccc43)n2)CC1 [Example 219]
activation at 10 µM (human Nav1.5; [2]): 12%

Nav1.1 current amplification rate (%) (human Nav1.1; compound 1 μmol/L, HEK293 stably expressing human Nav1.1): 127%
SMILES: CC1CC=C(c2ccc(=O)n(CC(=O)Nc3ccc4ncnn4c3)n2)CC1 (racemic) [Example 339]
Nav1.5 current amplification rate (%) (human Nav1.5; compound 1 μmol/L, CHO-K1 stably expressing human Nav1.5): 15%

Nav1.1 current amplification rate (%) (human Nav1.1; [3]): 137%
SMILES: Cc1nc2cc(NC(=O)Cn3nc(N4CCC(C)CC4)ccc3=O)ccc2o1 [Example 69]
Nav1.5 current amplification rate (%) (human Nav1.5; [4]): 0%

Nav1.1 current amplification rate (%) (human Nav1.1; [3]): 131%
SMILES: CC1CCN(c2ccc(=O)n(CC(=O)Nc3cccc(-c4nccs4)c3)n2)CC1 [Example 80]
Nav1.5 current amplification rate (%) (human Nav1.5; [4]): -3%

activation at 1 µM (human Nav1.1; [5]): 41%
SMILES: CC1CC=C(c2ccc(=O)n(CC(=O)Nc3cnc4ccccc4n3)n2)CC1 (stereo not drawn) [Example 548]

activation at 10 µM (human Nav1.1; 10 μmol/L compound (Test Result 5), read-out: Nav1.1 current amplification rate (%)): 246%
SMILES: CC1CCN(c2ccc(=O)n(CC(=O)Nc3ccc(C#N)cc3)n2)CC1 [Example 1, N-(4-cyanophenyl)-2-[3-(4-methylpiperidin-1-yl)-6-oxopyridazin-1(6H)-yl]acetamide]

activation at 1 µM (human Nav1.1; [7]): 43%
SMILES: Cc1ccc(Oc2ccc(=O)n(CC(=O)N3CCc4c(-c5ccnnc5)cccc43)n2)cc1 [Example 529]

Nav1.1 current amplification rate (%) (human Nav1.1; [6]): 37%
SMILES: CC1CC=C(c2ccc(=O)n(CC(=O)N3CC=C(c4ccccc4)C3)n2)CC1 (racemic) [Example 388]

Nav1.1 current amplification rate (%) (human Nav1.1; [8]): 10%
SMILES: CC1CC=C(c2ccc(=O)n(CC(=O)N3CCc4cc(OCC(C)(C)O)ccc43)n2)CC1 (racemic) [Example 320]

Nav1.1 current amplification rate (%) (human Nav1.1; [8]): 19%
SMILES: CC1CC=C(c2ccc(=O)n(CC(=O)N3CC=C(c4ccncc4)C3)n2)CC1 (racemic) [Example 387]

Nav1.1 current amplification rate (%) (human Nav1.1; [6]): 324%
SMILES: CC1CC=C(c2ccc(=O)n(CC(=O)Nc3ccc(C#N)cc3)n2)CC1 (stereo not drawn) [Example 41]
